Here are results for six compounds from EPA's ToxRefDB 2.

As usually defined, the LOAEL is the lowest tested level that showed an adverse finding. A word on the NOAEL: it is the highest dose or exposure tested at which no adverse effect was seen.

SMILES strings stand for the structures.

The subject of data set [1] is rabbit. Particulars: Prenatal developmental toxicity study, new zealand white, Oral, Gavage/Intubation, dose end: 19 GD.
The test system of data set [2] is rat. Particulars: Prenatal developmental toxicity study; sprague dawley; Oral; Gavage/Intubation; dose end: 17 GD; group: maternal; reproductive / reproductive performance / estrous cycle / corpora lutea + reproductive / reproductive performance / postimplantation loss / ….
Data set [3] deals with rat. Particulars: Sub-acute repeat dose toxicity; sprague dawley; Oral; Gavage/Intubation; dose end: 1 month; group: systemic; systemic / clinical chemistry / cholesterol / cholesterol + systemic / clinical chemistry / globulins / globulins + systemic / hematology / ….
In data set [4] the test system is rabbit. Particulars: Prenatal developmental toxicity study, new zealand white, Oral, Gavage/Intubation, dose end: 19 GD. This is another data set of the same source.
The test system of data set [5] is rat. Particulars: Multigenerational reproductive toxicity study, sprague dawley, Oral, Feed, dose end: 2 generation.
Data set [6] deals with dog. Particulars: Subchronic oral toxicity in nonrodent, beagle, Feed, dose end: 90 day, group: systemic.
Data set [7] concerns rat. Particulars: Combined chronic toxicity/carcinogenicity, sprague dawley, Oral, Feed, dose end: 24 month, group: systemic.
Data set [8] deals with mouse. Particulars: Carcinogenicity, cd1, Oral, Feed, dose end: 18 month, group: systemic.
Data set [9] relates to dog. Particulars: Chronic toxicity; beagle; Oral; Feed; dose end: 52 week; group: systemic; systemic / clinical chemistry / bilirubin / total bilirubin + systemic / hematology / erythrocyte (rbc) count differential / erythrocyte (….
For data set [10], the system named is mouse. Particulars: Subchronic oral toxicity in rodents, cd1, Feed, dose end: 90 day, group: systemic.
The subject of data set [11] is rat. Particulars: Subchronic oral toxicity in rodents, sprague dawley, Feed, dose end: 13 week, group: systemic.
Data set [12] deals with rat. Particulars: Developmental neurotoxicity study; fischer; Injection; Intraperitoneal; dose end: 30 PND; group: cannot be grouped; systemic / in life observation / body weight / offspring (pup) weight.
Data set [13] deals with rat. Particulars: Carcinogenicity, fischer, Oral, Feed, dose end: 59 week, group: systemic.
The test system of data set [14] is rat. Particulars: Sub-acute repeat dose toxicity; fischer; Oral; Feed; dose end: 4 week; group: systemic; systemic / in life observation / body weight / body weight gain.
The subject of data set [15] is mouse. Particulars: Carcinogenicity; b6c3f1; Oral; Feed; dose end: 78 week; group: systemic; systemic / in life observation / body weight / body weight + systemic / pathology microscopic / liver / cytoplasmic alteration + systemic / ….
Data set [16] deals with mouse. Particulars: Subchronic oral toxicity in rodents, b6c3f1, Feed, dose end: 13 week, group: systemic, systemic / in life observation / body weight / body weight gain.
Data set [17] has as its system rat. Particulars: Subchronic oral toxicity in rodents, fischer, Feed, dose end: 13 week, group: systemic.
In data set [18] the test system is rat. Particulars: Prenatal developmental toxicity study; sprague dawley; Oral; Gavage/Intubation; dose end: 20 GD; group: maternal; systemic / in life observation / body weight / body weight gain.
The subject of data set [19] is rat. Particulars: Chronic toxicity, sprague dawley, Oral, Gavage/Intubation, dose end: 53 week, group: systemic.
The mark [20] stands for this setting: group: developmental, developmental / developmental malformation / bone / domed head + developmental / developmental malformation / bone / fused + developmental….
The mark [21] stands for this setting: group: maternal, systemic / in life observation / body weight / body weight gain + systemic / in life observation / clinical signs / defecation + systemic / ….
[22] abbreviates: group: developmental, developmental / developmental malformation / bone / domed head + developmental / developmental malformation / brain / hydrocephaly + ….
Setting [23] is: group: maternal, systemic / in life observation / clinical signs / discharge on cageboard + systemic / in life observation / food consumption / food ….
Where [24] appears, read: group: offspring, developmental / offspring survival late / viability index / viability index.
The mark [25] stands for this setting: group: parental, systemic / pathology microscopic / spleen / pigmentation.
Setting [26] is: group: parental, systemic / pathology microscopic / spleen / pigmentation + systemic / in life observation / body weight / body weight + systemic / in life ….
The mark [27] stands for this setting: group: reproductive, reproductive / offspring survival early / birth index / live birth index.
Setting [28] is: systemic / hematology / heinz body / heinz body + systemic / hematology / hematocrit (hct) / hematocrit (hct) + systemic / hematology / ….
The mark [29] stands for this setting: systemic / urinalysis / appearance and color / appearance and color.
Setting [30] is: systemic / hematology / erythrocyte (rbc) count differential / erythrocyte (rbc) + systemic / hematology / hematocrit (hct) / hematocrit (….
The mark [31] stands for this setting: systemic / in life observation / mortality / mortality.
Where [32] appears, read: systemic / in life observation / body weight / body weight gain.
Setting [33] is: systemic / in life observation / body weight / body weight gain + systemic / clinical chemistry / alkaline phosphatase (alp/alk) / alkaline ….
Where [34] appears, read: systemic / hematology / erythrocyte (rbc) count differential / erythrocyte (rbc) + systemic / hematology / hemoglobin (hgb) / hemoglobin (….
Setting [35] is: systemic / in life observation / body weight / body weight.
The mark [36] stands for this setting: systemic / in life observation / body weight / body weight gain + systemic / pathology microscopic / bone marrow / depletion + systemic / ….
Where [37] appears, read: systemic / in life observation / body weight / body weight gain + systemic / pathology microscopic / bone marrow / hyperplasia + systemic / ….
Where [38] appears, read: systemic / clinical chemistry / alkaline phosphatase (alp/alk) / alkaline phosphatase (alp/alk) + systemic / clinical chemistry / aspartate ….
Where [39] appears, read: systemic / hematology / monocytes / monocytes + systemic / in life observation / clinical signs / salivation.

As for `CC(=O)NC1(c2cccc(F)c2)CCN(CC[C@@]2(c3ccc(Cl)c(Cl)c3)CN(c3ccccc3)C(=O)CO2)CC1.O=C(O)CCC(=O)O`, the LEL amounted to 1000 mg/kg/day in the data set on rabbit [1] (setting [20]); 1000 mg/kg/day in the data set with rabbit [1] (setting [21]); 500 mg/kg/day in the data set on rat [2]; 200 mg/kg/day with rat [3]; 1000 mg/kg/day in the data set with rabbit [4] (setting [22]); 1000 mg/kg/day in the data set with rabbit [4] (setting [23]). Moreover, the LOAEL was 1000 mg/kg/day in the data set on rabbit [1] (setting [20]); 1000 mg/kg/day with rabbit [1] (setting [21]); more than 1500 mg/kg/day in the data set on rat [2]; 200 mg/kg/day in the data set with rat [3]; 1000 mg/kg/day in the data set on rabbit [4] (setting [22]); 1000 mg/kg/day in the data set with rabbit [4] (setting [23]). Also, the NEL was 200 mg/kg/day in the data set with rabbit [1] (setting [20]); 200 mg/kg/day with rabbit [1] (setting [21]); less than 500 mg/kg/day with rat [2]; 30 mg/kg/day in the data set with rat [3]; 500 mg/kg/day with rabbit [4] (setting [22]); 500 mg/kg/day in the data set with rabbit [4] (setting [23]). Moreover, the NOAEL in the data set on rabbit [1] (setting [20]) is 200 mg/kg/day; in the data set on rabbit [1] (setting [21]), 200 mg/kg/day; in the data set on rat [2], not below 1500 mg/kg/day; in the data set with rat [3], 30 mg/kg/day; with rabbit [4] (setting [22]) it was 500 mg/kg/day; in the data set on rabbit [4] (setting [23]), 500 mg/kg/day.
For `CCc1ccc(C(=O)NN(C(=O)c2cc(C)cc(C)c2)C(C)(C)C)cc1` [Tebufenozide], the LEL in the data set with rat [5] (setting [24]) was 155 mg/kg/day; in the data set with rat [5] (setting [25]) it was 11.5 mg/kg/day; in the data set with rat [5] (setting [27]), 155 mg/kg/day; in the data set on dog [6] (setting [29]), 2.1 mg/kg/day; in the data set with rat [7] (systemic / pathology gross / ovary / cyst), 6 mg/kg/day; in the data set on mouse [8] (setting [31]) it was 0.8 mg/kg/day. For the same compound, the LEL came to 7 mg/kg/day in the data set with dog [9], 35.3 mg/kg/day with mouse [10] (setting [32]) and 13.1 mg/kg/day in the data set with rat [11] (systemic / organ weight / testes / relative to body weight). Further, the lowest-observed-adverse-effect level (LOAEL) was more than 155 mg/kg/day in the data set on rat [5] (setting [24]); 11.5 mg/kg/day in the data set on rat [5] (setting [25]); 155 mg/kg/day with rat [5] (setting [27]); 20.1 mg/kg/day with dog [6] (setting [28]); 48 mg/kg/day with rat [7] (setting [30]); 78 mg/kg/day in the data set with mouse [8] (systemic / in life observation / mortality / mortality + systemic / pathology microscopic / spleen / pigmentation + systemic / organ weight…). The lowest-observed-adverse-effect level (LOAEL) in the data set on dog [9] turned out to be 7 mg/kg/day; with mouse [10] (setting [32]) it was 35.3 mg/kg/day; in the data set with rat [11] (setting [34]), 133 mg/kg/day. Also, the NEL in the data set with rat [5] (setting [24]) was 11.5 mg/kg/day; with rat [5] (setting [26]), 0.8 mg/kg/day; in the data set with rat [5] (setting [27]), 11.5 mg/kg/day; in the data set on dog [6] (setting [29]), less than 2.1 mg/kg/day; in the data set with rat [7] (systemic / pathology gross / ovary / cyst + systemic / organ weight / adrenal gland / relative to body weight + systemic / organ weight / …), 0.6 mg/kg/day; with mouse [8] (setting [31]), less than 0.8 mg/kg/day. Besides, the NEL with dog [9] is 1.6 mg/kg/day; in the data set on mouse [10] (setting [33]) it was 3.4 mg/kg/day; in the data set with rat [11] (setting [34]), 1.3 mg/kg/day. In addition, the NOAEL in the data set with rat [5] (setting [24]) is not below 155 mg/kg/day; in the data set with rat [5] (setting [26]), 0.8 mg/kg/day; with rat [5] (setting [27]) it was 11.5 mg/kg/day; with dog [6] (setting [28]), 2.1 mg/kg/day; with rat [7] (setting [30]) it was 5 mg/kg/day; with mouse [8] (systemic / pathology microscopic / spleen / pigmentation + systemic / organ weight / spleen / absolute), 7.8 mg/kg/day. Moreover, the NOAEL in the data set with dog [9] amounted to 1.6 mg/kg/day; with mouse [10] (setting [33]), 3.4 mg/kg/day; with rat [11] (setting [34]), 13.1 mg/kg/day.
In the data set on rat [12], `CN=C1CN(O)C(c2ccccc2)=c2cc(Cl)ccc2=N1` [Chlordiazepoxide] came in with an LEL of 1 mg/kg/day, an LOAEL of more than 1 mg/kg/day, an NEL of less than 1 mg/kg/day and a no observed adverse effect level (NOAEL) not below 1 mg/kg/day.
In the data set with rat [13] (setting [35]), `CN(C)c1ccc(Cc2ccc(N(C)C)cc2)cc1` [4,4'-Methylenebis(N,N-dimethylaniline)] showed an LEL of 18.8 mg/kg/day, an LOAEL of 37.5 mg/kg/day and an NEL of less than 18.8 mg/kg/day. The no observed adverse effect level (NOAEL) in the data set on rat [13] (systemic / in life observation / body weight / body weight + systemic / pathology microscopic / thyroid gland / adenoma + systemic / …) was 18.8 mg/kg/day. In the data set with rat [14], this compound gave an LEL of 7.25 mg/kg/day, an LOAEL of 34 mg/kg/day, an NEL of less than 7.25 mg/kg/day and an NOAEL of 15.8 mg/kg/day. In addition, in the data set on mouse [15], the LEL came to 188 mg/kg/day, the lowest-observed-adverse-effect level (LOAEL) was determined as 188 mg/kg/day, the NEL was less than 188 mg/kg/day and the NOAEL is less than 188 mg/kg/day.
In the case of `O=C1O[C@H]([C@@H](O)CO)C(O)=C1O` [L-Ascorbic acid], in the data set with mouse [16], the LEL stood at 7500 mg/kg/day, the LOAEL amounted to 7500 mg/kg/day, the NEL stood at 3750 mg/kg/day and the NOAEL was 3750 mg/kg/day. Also, in the data set on rat [17] (setting [36]), the lowest-observed-adverse-effect level (LOAEL) was 5000 mg/kg/day and the NOAEL worked out at 2500 mg/kg/day. Besides, in the data set with rat [17] (setting [37]), the LEL was 1250 mg/kg/day and the NEL was less than 1250 mg/kg/day.
For the compound `CO[C@@H]1COCC[C@@H]1[NH2+][C@@H]1CC[C@@](C(=O)N2CCc3ncc(C(F)(F)F)cc3C2)(C(C)C)C1.O=C([O-])CCC(=O)O` [MK-812], in the data set on rat [18], the LEL amounted to 30 mg/kg/day, the LOAEL is more than 30 mg/kg/day, the NEL was 10 mg/kg/day and the NOAEL was not below 30 mg/kg/day. In the data set with rat [19] (setting [38]), the LOAEL is more than 80 mg/kg/day and the no-observed-adverse-effect level (NOAEL) was not below 80 mg/kg/day. In addition, in the data set with rat [19] (setting [39]), the LEL worked out at 5 mg/kg/day and the NEL is less than 5 mg/kg/day.
